The source of these data is patent US20220054432A1, “COMPOSITION FOR INCREASING RETENTION OF CAROTENOID IN BLOOD” (ENEOS Corporation, priority 2018, published 2022).

This series in a line: Retention in blood: carotenoid concentration in serum of cynomolgus monkeys (Test Example 3). Format: in vivo. The following applies: cynomolgus monkey, 50 mg/kg intragastric once daily for 10 days, serum 4 hours after last administration. As to the method: As experimental animals, cynomolgus monkeys were used. Two cynomolgus monkeys were used, and an adonixanthin dosing solution was administered to one monkey (adonixanthin-administering monkey), while an astaxanthin dosing solution was administered to the other monkey (astaxanthin-administering monkey). As the dosing solutions, the dosing solutions obtained in Preparation Example 2 were used, and the dosing solutions at a dose such that the dose of adonixanthin or astaxanthin was 50 mg/kg body weight were administered once daily for 10 days (the day of initiation of administration of the dosing solutions was defined as day 1). […] The dose in each administration was calculated based on the latest body weight at each administration time point (the body weight was measured on the day of initiation of acclimation, the day of end of acclimation, the day of initiation of administration, and before administration on day 8 of administration using an electric balance (HP-40K or GP-40K, both of which are manufactured by A&D Company, Limited)). […] Regarding each serum 4 hours after the last administration of the dosing solutions, each of the concentration of adonixanthin in serum collected from the adonixanthin-administering monkey and the concentration of astaxanthin in serum collected from the astaxanthin-administering monkey was measured. […]

Consider `CC1=C(/C=C/C(C)=C/C=C/C(C)=C/C=C/C=C(C)/C=C/C=C(C)/C=C/C2=C(C)C(=O)C(O)CC2(C)C)C(C)(C)CC(O)C1` (stereo not drawn) [adonixanthin, 3,3′-dihydroxy-β,β-caroten-4-one], for which the “Concentration in serum, FIG. 3” value is “especially likely to be retained in blood”.

As for `CC1=C(/C=C/C(C)=C/C=C/C(C)=C/C=C/C=C(C)/C=C/C=C(C)/C=C/C2=C(C)C(=O)C(O)CC2(C)C)C(C)(C)CC(O)C1=O` (stereo not drawn) [astaxanthin, 3,3′-dihydroxy-β,β-carotene-4,4′-dione], the “Concentration in serum, FIG. 3” value was “exist in serum at a high concentration”.
